Test results: US20090238792A1, “SUPPRESSION OF POSTOPERATIVE ILEUS” (University of Pittsburgh of the Commonwealth System of …, priority 2007, published 2009)

Key:
[1] = test system: rats with surgical manipulation of the intestine; experiment: Rat in vivo gastrointestinal transit of fluorescein-labeled dextran (geometric center)
Description: (§1) Age matched animals treated with vehicle (normal saline) or valine (263.5 mg/kg, osmotic control) at appropriate time points and at equal volumes served as controls.
(§2) The rodent intestine was subjected to a standardized degree of surgical manipulation as described previously (14). Rats were anesthetized by isoflurane inhalation and the abdomen was opened by a midline laparotomy. The cecum was eventrated and laid out onto a moist gauze. Then, the intestine was inspected along its length and gently compressed using moist cotton applicators. The midline incision was closed by two layers of continuous sutures. All operative procedures were performed under sterile conditions with the intestine being handled only by instruments and never touched directly. Animals were killed at specific time points postoperatively by isoflurane anesthesia inhalation overdose and heart incision.
(§3) Methods: ACI-rats (180-220 g) underwent standardized surgical manipulation of the intestine. […] Age matched animals treated with vehicle or valine (osmotic control) at appropriate time points and at equal volumes served as controls. […] Postoperative mediator mRNA expression in the intestinal muscularis was determined by real-time RT PCR. Leukocyte extravasation was investigated in muscularis whole-mounts. Nitrite production was measured in muscularis cultures. In vivo transit of FITC-dextran was measured using geometric center analysis (GC). In vitro circular muscle contractility was assessed in a standard organ bath. Statistical analysis: unpaired Student t test, p<0.05, mean±SEM.

IL-6 mRNA = experiment: Real-time RT-PCR of muscularis IL-6 mRNA 3 hours postoperatively; format: in vivo, rat
Description: as §1, §2
(§4) mRNA Expression Analysis: Postoperative mediator mRNA expressions in the small intestinal muscularis were analyzed using SYBR Green two-step real-time RT-PCR as previously described, (N=4-6). […] Total mRNA extraction was performed using the guanidium-thiocyanate phenol-chloroform extraction method. Equal aliquots (200 ng) of total RNA from each sample, quantified by spectrophotometer, were processed for complimentary DNA (cDNA) synthesis. Primer sequences were used as described previously (tumor necrosis factor-a, TNF-a) (35), or designed according to published sequences 36-41, (GenBank accession numbers: NM_017008 [glyceraldehyde phosphate dehydrogenase (GAPDH)], AF233596 [cyclo-oxygenase-2 (COX-2)], NM_012967 [intercellular adhesion molecule-1 (ICAM-1)], M26744 [interleukin-6 (IL-6)] and NM_012611 [inducible nitric oxide synthase (iNOS)]), using Primer Express software (PE Applied Biosystems, Foster City, Calif.) and purchased from Life Technologies (Rockville, Md.). GAPDH was used as an endogenous control. The efficiency and equality of the real-time PCR primer pairs were determined by amplifying serial dilutions of muscularis cDNA. For each target gene different MgCl2 (3 to 5 mM) concentrations were tested to optimize the PCR amplification. […] Relative quantification was performed using the comparative CT method as described by Schmittgen et al. (42).
Methods: ACI-rats (180-220 g) underwent standardized surgical manipulation of the intestine. […] Postoperative mediator mRNA expression in the intestinal muscularis was determined by real-time RT PCR. […] Nitrite production was measured in muscularis cultures. In vivo transit of FITC-dextran was measured using geometric center analysis (GC). In vitro circular muscle contractility was assessed in a standard organ bath. […]

ICAM-1 mRNA = conditions: 3 hours postoperatively
Description: as §1, §2
as §4, with “amplification. Agarose gel electrophoretic analysis was used to verify the presence of a single product and that the amplified product corresponded to size predicted for the amplicon. The PCR reaction mixture was prepared using the SYBR Green PCR Core Reagents (PE Applied Biosystems, Foster City, Calif.). PCR conditions on an ABI PRISM 7700 Sequence Detection System (PE Applied Biosystems, Foster City, Calif.) were as recommended by the manufacturer. Each sample was estimated in duplicate.” for “amplification.”
as §3

TNF-α mRNA = conditions: 3 hours postoperatively
Description: as §1, §2
as §4, with “amplification. Agarose gel electrophoretic analysis was used to verify the presence of a single product and that the amplified product corresponded to size predicted for the amplicon. The PCR reaction mixture was prepared using the SYBR Green PCR Core Reagents (PE Applied Biosystems, Foster City, Calif.). PCR conditions on an ABI PRISM 7700 Sequence Detection System (PE Applied Biosystems, Foster City, Calif.) were as recommended by the manufacturer. Each sample was estimated in duplicate.” for “amplification.”
as §3

iNOS mRNA = conditions: 3 hours postoperatively
Description: as §1, §2
as §4, with “amplification. Agarose gel electrophoretic analysis was used to verify the presence of a single product and that the amplified product corresponded to size predicted for the amplicon. The PCR reaction mixture was prepared using the SYBR Green PCR Core Reagents (PE Applied Biosystems, Foster City, Calif.). PCR conditions on an ABI PRISM 7700 Sequence Detection System (PE Applied Biosystems, Foster City, Calif.) were as recommended by the manufacturer. Each sample was estimated in duplicate.” for “amplification.”
as §3

COX-2 mRNA = conditions: glycine 170 mg/kg, 3 hours postoperatively; SM 3.2-fold; not significant
Description: as §1
as §2, with “Animals were killed at specific time points postoperatively by isoflurane anesthesia inhalation overdose and heart incision.” left out
mRNA Expression Analysis: Postoperative mediator mRNA expressions in the small intestinal muscularis were analyzed using SYBR Green two-step real-time RT-PCR as previously described, (N=4-6). […] Equal aliquots (200 ng) of total RNA from each sample, quantified by spectrophotometer, were processed for complimentary DNA (cDNA) synthesis. […] The efficiency and equality of the real-time PCR primer pairs were determined by amplifying serial dilutions of muscularis cDNA. […] Relative quantification was performed using the comparative CT method as described by Schmittgen et al. (42).

prostanoids = experiment: Prostanoid release (ELISA) from organ cultured muscularis; format: in vivo, rat; conditions: manipulated rats, glycine 170 mg/kg or valine
Description: Age matched animals treated with vehicle (normal saline) or valine (263.5 mg/kg, osmotic control) at appropriate time points and at equal volumes served as controls. The rodent intestine was subjected to a standardized degree of surgical manipulation as described previously (14). Rats were anesthetized by isoflurane inhalation and the abdomen was opened by a midline laparotomy. The cecum was eventrated and laid out onto a moist gauze. Then, the intestine was inspected along its length and gently compressed using moist cotton applicators. The midline incision was closed by two layers of continuous sutures. All operative procedures were performed under sterile conditions with the intestine being handled only by instruments and never touched directly. Animals were killed at specific time points postoperatively by isoflurane anesthesia inhalation overdose and heart incision. The synthesis of prostanoids released into the tissue culture supernatant over a period of 24 hours was assayed by ELISA. After incubation the culture median and tissue was inspected, 500 μL aliquots of supernatant were frozen in liquid nitrogen and stored at −80° C. The muscle tissue was blotted dry and weighed. Culture supernatants were assayed for the measurement of prostaglandin secretion by enzyme immunoassay (Cayman Chemicals, Ann Arbor, Mich.). The ELISA was carried out in a 1:10 and 1:30 dilution. The assay was corrected for wet tissue weights and the prostaglandin ELISA kit sensitivity was 20 pg/ml.

[2] = test system: C57Bl/6 mice with surgical manipulation (SM); conditions: SM+glycine 170 mg/kg, control=11.0±0.44, SM=4.1±0.18, SM+saline=4.1±0.5
Description: as §1

[3] = test system: interleukins and chemokines
Description: Luminex Multiplex Bead Immunoassays: The release of […] inflammatory analytes into the mouse tissue culture supernatant, obtained as above, was quantified with a Luminex 100™ using microsphere-based multiplexing technology. The mouse cytokine twenty plex immune kit was comprised of analyte specific components for the simultaneous measurement of the following mouse cytokines (FGF-basic, IL-1α, IL-1β, IL-2, IL-4, IL-5, IL-6, IL-10, IL-12p70, IL-13, IL-17, TNF-α, IFN-γ, GM-CSF, KC, MCP-1, MIG, MIP-1α, IP-10 and VEGF) (Invitrogen, Carlsbad, Calif.).

[4] = 170 mg/kg intravenously; cited from earlier work

**Q.** Which results are given for `NCC(=O)O` [glycine]?
**A.** postoperative intestinal transit ([1]; Example 5, glycine (170 mg) i.v. 1 hour prior to surgery): ameliorated; geometric center (GC) of gastrointestinal transit ([1]; surgically manipulated rats, 24 h postoperatively, i.v. pretreatment 1 h before surgery, glycine 170 mg/kg, valine 263.5 mg/kg, SM vehicle GC=5.2±0.7): 8.5±0.7; IL-6 mRNA induction vs non-operated vehicle treated controls (IL-6 mRNA; glycine pretreatment, 3 hours postoperatively, manipulation alone 8521 fold): 2742 fold; mediator mRNA levels in non-operated animals vs non-operated vehicle rats (IL-6 mRNA; non-operated glycine injected rats): did not differ; postoperative induction of IL-6 mRNA (IL-6 mRNA; surgically manipulated rats, 3 hours postoperatively): significantly attenuated; ICAM-1 mRNA induction vs non-operated vehicle treated controls (ICAM-1 mRNA; glycine pretreatment, manipulation alone 21 fold): 14 fold; postoperative induction of ICAM-1 mRNA (ICAM-1 mRNA; surgically manipulated rats): attenuation; TNF-α mRNA induction vs non-operated vehicle treated controls (TNF-α mRNA; glycine pretreatment, manipulation alone 3.4 fold): 1.9 fold; postoperative induction of TNF-α mRNA (TNF-α mRNA; surgically manipulated rats): attenuation; surgical induction of iNOS mRNA (iNOS mRNA; SM vehicle 197.1-fold): significantly suppressed; iNOS mRNA induction vs non-operated vehicle treated controls (iNOS mRNA; glycine pretreatment, manipulation alone 197 fold): 17 fold; COX-2 mRNA postoperative upregulation (COX-2 mRNA): 2.3 fold; prostanoid release, fold of control, colon (prostanoids; colonic muscularis 24 h organ culture, SM 3.1-fold): 0.7 fold; prostanoid release, fold of control, jejunum (prostanoids; jejunal muscularis 24 h organ culture, SM 5.9-fold): 0.9 fold; geometric center of gastrointestinal transit [2]: 10.3±7; interleukins and chemokines released into organ culture media, colonic muscularis externa ([3]; manipulated colonic muscularis, significance reached by IL-5, IL-6, IL-10, IL-12, KC, MCP-1, MIP1-α and GM-CSF): tended to be quelled; interleukins and chemokines released into organ culture media, jejunal muscularis externa ([3]; manipulated jejunal muscularis, significance reached by IL-6, IP-10 and MIP1-α): tended to be quelled; production of chemokines (IP-10, KC, MCP-1, MIP-1α, VEGF and GM-CSF) ([3]; organ cultured muscularis of jejunum and colon, more dramatic in colon): trend for the inhibition; release of interleukins 5, 6, 10 and 12 ([3]; organ cultured muscularis of jejunum and colon, more pronounced in colon): decrease; increase of glycine serum levels [4]: about sevenfold
